Each structure is given as a SMILES string.

What is called melting point is the temperature, or range, at which the solid turns liquid. For `O=C(NC(Cc1cncnc1)C(=O)O)OCc1cc2cc(-c3ccccc3)ccc2o1` (stereo not shown) [Compound 173, 2-(5-phenyl-benzofuran-2-ylmethoxycarbonylamino)-3-pyrimidin-5-yl-propionic acid], the melting point was 181.4 to 184.5 °C.

In turn, `O=C(NC(Cc1ccccc1)C(=O)O)OCc1ccc(COc2ccccc2F)cc1` (stereo not shown) [Compound 75, 2-[4-(2-fluoro-phenoxymethyl)-benzyloxycarbonylamino]-3-phenyl-propionic acid] gave a melting point of 114 to 117 °C.

`O=C(NC(Cc1ccccc1)C(=O)O)OCc1coc2ccc(-c3ccccc3)cc12` (stereo not shown) [Compound 172, 2-(5-Phenyl-benzofuran-3-ylmethoxycarbonylamino)-3-phenyl-propionic acid] returned a melting point of 177.6 to 178.6 °C.

Turning to `N#Cc1cccc(-c2nc3cc(COC(=O)N[C@H](Cc4ccc(F)cc4)C(=O)O)ccc3o2)c1` [Compound 159, (R)-2-[2-(3-cyano-phenyl)-benzoxazol-5-ylmethoxycarbonylamino]-3-(4-fluoro-phenyl)-propionic acid], the melting point was in the range of 208.5 to 209.2 °C.

The compound `Cn1cc(C[C@@H](NC(=O)OCc2ccc(-c3ccccc3)cc2)C(=O)O)c2ccccc2c1=O` [Compound 149, (R)-2-(biphenyl-4-ylmethoxycarbonylamino)-3-(2-methyl-1-oxo-1,2-dihydro-isoquinolin-4-yl)-propionic acid] registered a melting point of 215 to 217 °C.

As for `O=C(N[C@H](Cc1ccc(F)cc1)C(=O)O)OCc1cc2cc(-c3ccc(F)cc3)ccc2o1` (hydrate or solvate) [Compound 111, (R)-3-(4-fluoro-phenyl)-2-[5-(4-fluorophenyl)-benzofuran-2-ylmethoxycarbonylamino]-propionic acid], the melting point was in the range of 158 to 162 °C.

In the case of `O=C(N[C@H](Cc1ccccc1)C(=O)O)OCc1ccc(COc2cccc(NC(=O)c3ccccc3)c2)cc1` [Compound 81, (R)-3-phenyl-2-(4-{3-[(1-phenyl-methanoyl)-amino]-phenoxymethyl}-benzyloxycarbonylamino)-propionic acid], the melting point was in the range of 161.9 to 163.7 °C.

On to `O=C(NC(Cc1ccccc1)C(=O)O)OCCCc1ccc(-c2ccccc2)cc1` (stereo not shown) [Compound 143, 2-(3-biphenyl-4-yl-propoxycarbonylamino)-3-phenyl-propionic acid], for which the melting point was 139.1 to 139.9 °C.

The compound `O=C(O)CC(NC(=O)OCc1cc2cc(-c3ccccc3)ccc2o1)c1ccccc1` (stereo not shown) [Compound 109, 3-phenyl-3-(5-phenyl-benzofuran-2-ylmethoxycarbonylamino)-propionic acid] registered a melting point of 168 to 169.8 °C.

`CCn1cc(CC(NC(=O)OCc2ccc(-c3ccccc3)cc2)C(=O)O)c2ccccc21` (stereo not shown) [Compound 147, 2-(biphenyl-4-ylmethoxycarbonylamino)-3-(1-ethyl-1Hindol-3-yl)-propionic acid]: the melting point lay in the range of 136.8 to 138.5 °C.

The compound `CC(C)n1cc(CC(NC(=O)OCc2ccc(-c3ccccc3)cc2)C(=O)O)c2ccccc21` (stereo not shown) [Compound 148, 2-(biphenyl-4-ylmethoxycarbonylamino)-3-(1-isopropyl-1H-indol-3-yl)-propionic acid] displayed a melting point of 143.1 to 144.8 °C.

`O=C(NC(Cc1ccccc1)C(=O)O)OCc1ccc(COc2ccccc2)c(F)c1` (stereo not shown) [Compound 82, 2-(3-fluoro-4-phenoxymethyl-benzyloxycarbonylamino)-3-phenyl-propionic acid] registered a melting point of 104.2 to 104.7 °C.

`O=C(N[C@@H](Cc1ccccc1)C(=O)O)OCCc1cc2cc(-c3ccccc3)ccc2o1` [Compound 128, (S)-3-phenyl-2-[2-(5-phenyl-benzofuran-2-yl)-ethoxycarbonylamino]-propionic acid] showed a melting point of 170.9 to 171.9 °C.

`O=C(NC(Cc1ccccc1)C(=O)O)OCc1cc2cc(-c3ccncc3)ccc2o1` (stereo not shown) [Compound 174, 3-phenyl-2-(5-pyridin-4-yl-benzofuran-2-ylmethoxycarbonylamino)-propionic acid]: the melting point lay within 119 to 121 °C.

Take `O=C(NC(Cc1ccncc1)C(=O)O)OCc1cc2cc(-c3ccccc3)ccc2o1` (stereo not shown) [Compound 163, 2-(5-phenyl-benzofuran-2-ylmethoxycarbonylamino)-3-pyridin-4-yl-propionic acid]: the melting point is 219 to 220 °C.

As for `O=C(NC(Cc1ccccc1)C(=O)O)OCc1ccc(CCCc2ccccc2)cc1` (stereo not shown) [Compound 168, 3-Phenyl-2-[4-(3-phenyl-propyl)-benzyloxycarbonylamino]-propionic acid], the melting point is 134.8 to 135.2 °C.

`O=C(N[C@H](Cc1ccccc1)C(=O)O)OCc1ccc(OCCCc2ccccc2)cc1` [Compound 87, (R)-3-phenyl-2-[4-(3-phenyl-propoxy)-benzyloxycarbonylamino]-propionic acid]: the melting point is 105.6 to 106.5 °C.

`O=C(NC(Cc1ccc(F)cc1)C(=O)O)OCc1ccc(-c2ccc(O)cc2)cc1` (stereo not shown) [Compound 142, 3-(4-fluoro-phenyl)-2-(4′-hydroxy-biphenyl-4-ylmethoxycarbonylamino)-propionic acid] displayed a melting point of 65 to 74 °C.

As to `CS(=O)(=O)Nc1cccc(OCc2ccc(COC(=O)N[C@H](Cc3ccccc3)C(=O)O)cc2)c1` [Compound 77, (R)-2-[4-(3-methanesulfonylamino-phenoxymethyl)-benzyloxycarbonylamino]-3-phenyl-propionic acid], the melting point lay in the range of 161.9 to 164.9 °C.

`O=C(N[C@H](Cc1ccccc1)C(=O)O)OCc1cc2cc(-c3ccc(Cl)cc3)ccc2o1` (hydrate or solvate) [Compound 94, (R)-2-[5-(4-chloro-phenyl)-benzofuran-2-ylmethoxycarbonylamino]-3-phenyl-propionic acid] returned a melting point of 129.5 to 144 °C.

`O=C(N[C@H](Cc1ccccc1)C(=O)O)OCc1ccc(COc2ccccc2)cc1` [Compound 7, (R)-2-(4-Phenoxymethyl-benzyloxycarbonylamino)-3-phenyl-propionic acid] gave a melting point of 115.9 to 116.7 °C.

`O=C(NC(Cc1ccccc1)C(=O)O)OCc1ccc(OCc2ccc(F)cc2)cc1` (stereo not shown) [Compound 85, 2-[4-(4-fluoro-benzyloxy)-benzyloxycarbonylamino]-3-phenyl-propionic acid] returned a melting point of 134 to 138 °C.

With `O=C(N[C@H](Cc1ccccc1)C(=O)O)OCc1cc2cc(-c3cc(F)cc(F)c3)ccc2o1` [Compound 99, (R)-2-[5-(3,5-difluoro-phenyl)-benzofuran-2-ylmethoxycarbonylamino]-3-phenyl-propionic acid], the melting point lay within 163 to 167 °C.

The compound `O=C(N[C@H](Cc1ccccc1)C(=O)O)OCc1ccc(COc2cccc([N+](=O)[O-])c2)cc1` [Compound 80, (R)-2-[4-(3-nitro-phenoxymethyl)-benzyloxycarbonylamino]-3-phenyl-propionic acid] registered a melting point of 160.8 to 161.7 °C.

For the compound `O=C(N[C@H](Cc1ccccc1)C(=O)O)OCc1cc2cc(Cc3ccccc3)ccc2o1` [Compound 134, (R)-2-(5-benzyl-benzofuran-2-ylmethoxycarbonylamino)-3-phenyl-propionic acid], the melting point fell in the range of 159.4 to 160.1 °C.

These data come from US7056903B2, “Carboxylic acid derivatives as IP antagonists” (Syntex (U.S.A.) LLC, priority 2000, dated 2006).
